# “Also recorded” adds a separate entry of the source.
# How the values were obtained:
# SUM159 PACR cells = experiment: Cell viability IC50 in SUM159 PACR cells; conditions: SUM159 PACR
# NAMEC8 [1] = experiment: Mammosphere assay, NAMEC8; assay type: cell-based, human; conditions: NAMEC8
# Method: For mammosphere culture, cells were seeded onto 96-well ultralow-adherence plates at 700 cells/well in Mammocult medium (Stem Cell Technologies) supplemented with 4 μg/ml heparin, 0.5 μg/ml hydrocortisone and 1% methylcellulose. Spheres (>100 μm) were counted at 7-10 days later.
# NAMEC8 [2] = experiment: Expression of EMT and lineage markers (qRT-PCR, immunoblot, immunofluorescence) in NAMEC8; assay type: cell-based, human
# How it was run: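 qRT-PCR on Trizol/RNeasy RNA (500 ng into cDNA, 37 °C 2 h), normalized to GAPDH. Immunoblots used 50-80 μg RIPA lysate on 4-12% Bis-Tris gels with ECL detection. Immunofluorescence was on paraformaldehyde-fixed, Triton-permeabilized cells with Alexa Fluor-488/-594 secondaries and DAPI, imaged by epifluorescence at 100-200×.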
# [3] = tested on: NAMEC8 and SUM159, BC2.2 and BC22.1; experiment: In vitro measurement of IC50 of 5-FU/PAC in bexarotene-treated cells; assay type: cell-based, human; conditions: bexarotene-treated vs DMSO cells
# Description: (§1) Data were normalized to vehicle controls.
# [4] = tested on: NAMEC8-SERPINE1prom-Luc cells; experiment: Renilla-luciferase (constitutive CMV promoter) readout for cell numbers; assay type: cell-based, human; conditions: Homo sapiens, 72 h, primary screen; Renilla as readout for cell numbers; relative to DMSO; read-out: % Avr Renilla from DMSO
# NAMEC8 [5] = experiment: Dose response to Raloxifene HCl of bexarotene-treated cells; assay type: cell-based, human; conditions: bexarotene-treated vs DMSO cells
# Description: as §1
# SUM159 = experiment: Tumor growth of ex vivo pre-treated SUM159 injected subcutaneously; assay type: in vivo, NSG mice; conditions: short-term (14 days) ex vivo treatment before transplantation
# Method: All animal experiments were approved by the Agency for Science Technology and Research Singapore-Biological Resource Centre IACUC (Protocol number 140940). For pre-treated SUM159 and MCF7-Ras cells, 1×10^6 cells were suspended in 100 μl media containing 50% matrigel and injected subcutaneously into both flanks of female NSG mice. The NSG mice were checked for tumor by palpation once a week and tumors were harvested when they reached ˜15 mm in diameter. For treatment in NSG mice, 1×10^5 NAMEC8-Ras cells were suspended in 100 μl media containing 50% matrigel and injected subcutaneously into both flanks of NSG mice. The NSG mice were checked for tumor formation by palpation and when tumors were about 3 mm, mice were randomized into two groups: vehicle (5% DMSO in corn oil) and treatment (Bexarotene, 100 mg/kg/day oral dosing). Tumor size was measured every week using Vernier calipers and mice were sacrificed when tumors reached ˜15 mm or after ˜4 weeks of treatment. For patient-derived cells, 2×10^6 cells were injected subcutaneously per site in NSG mice.
# [6] = tested on: BC2.2, BC22.1, BC29.1, MetBR 007-DR; experiment: EMT and lineage markers in patient-derived triple-negative breast cancer cell lines; assay type: cell-based, human; conditions: patient-derived TNBC cell lines
# Method: Breast tissue biopsies from cancer patients were obtained from National Cancer Centre Singapore (NCCS) with patients' consent and under an IRB approved protocol (2015/2976). Tissue was digested with 1 mg/ml collagenase IV (Gibco) and 1 mg/ml dispase II (Thermo Fisher Scientific) in F12 media for 2 h while shaking in a 37° C. incubator. Cell suspension was then put through a cell strainer and centrifuged for 10 min at 1500 rpm. Cells were then washed twice and resuspended in media before seeding on irradiated 3T3 feeders as previously described. When confluent, sub-culturing was carried out by first lifting the feeders using 0.15% trypsin for 2 min. […]
# Cells were rinsed twice in ice-cold PBS. Total RNA was extracted using Trizol (Invitrogen) and column-purified with RNeasy kits (Qiagen). cDNA synthesis was performed with 500 ng of total RNA at 37° C. for 2 h using the SuperScript III First-Strand Synthesis System (Thermo Fisher Scientific), and subsequently diluted 5-fold. mRNA levels were measured with gene-specific primers listed below using the ABI Prism 7900HT Sequence Detection System 2.2 (Applied Biosystems). Results were normalized to GAPDH and analyzed using SDS 2.2 software.
# Cells were harvested and scraped from culture dishes in ice-cold PBS. […] Protein concentrations were determined using Coomaisse Blue. […]
# NAMEC8, SUM159 and BC2.2 = experiment: Oxygen consumption rate with palmitate (Seahorse); assay type: cell-based, human; conditions: supplemented with palmitate
# Method: FAO rate was measured using the mitochondrial stress test on the XF96 analyzer (Seahorse Bioscience) according to manufacturer's instructions. Cells were seeded in 96well XF96 cell culture plates at a density of 9000 cells/well in complete media. Cells were then incubated with XF modified DMEM assay medium (Seahorse Bioscience) supplemented with 1 mM glutamine, 0.5 mM glucose, 1% FBS and 0.5 mM carnitine the next day for 18 h. On the day of the assay, cells were incubated with FAO assay medium (KHB: 111 mM NaCl, 4.7 mM KCl, 1.25 mM CaCl2), 2 mM MgSO4, 1.2 mM NaH2 PO4 supplemented with 2.5 mM glucose, 0.5 mM carnitine, 5 mM HEPES, adjusted to pH7.4) 45 min prior to the assay in a non-CO2 incubator. Seahorse XF Cell Mito Stress Test compounds (2 μM oligomycin, 2 μM FCCP, 2 μM rotenone). […] Just prior to starting the assay, XF Palmitate-BSA FAO substrate or BSA was added to the cells. Plate was then put into the XF96 analyzer and the XF Cell Mito Stress Test was run using the recommended protocol. Rate of FAO was calculated by the difference in maximal respiration when Palmitate-BSA FAO substrate was supplemented relative to BSA control.
compound,measurement,setting,value
C=C(c1ccc(C(=O)O)cc1)c1cc2c(cc1C)C(C)(C)CCC2(C)C [Bexarotene],sensitivity to 5-FU of bexarotene-treated PACR cells,SUM159 PACR cells,"gained sensitivity to an alternative chemotherapeutic drug, 5-flurouracil (5-FU)"
same,mammosphere formation after drug withdrawal,NAMEC8 [1],partial reestablishment of mammosphere-forming ability
same,MET phenotype: induction and durability after drug withdrawal,NAMEC8 [2]; drugs removed for at least seven days,gradually reverted to a more mesenchymal cell phenotype; also recorded: could cause an MET
same,expression of EMT and basal/luminal markers,NAMEC8 [2]; transcript and protein,"downregulation of mesenchymal signature markers (ZEB1, SERPINE1, FN1, SLUG) and the concomitant gain of epithelial marker CDH1"
same,conferred susceptibility to 5-FU or paclitaxel,[3],4-6 folds
same,viability at 10 µM,[4],87.5%
same,difference in drug sensitivity to Raloxifene hydrochloride,NAMEC8 [5],moderate two-fold
same,tumorigenic potential,SUM159,severely crippled their tumorigenic potential for up till seven weeks post-transplantation
same,expression of EMT and lineage markers,[6],"increased the expression of E-cadherin, while reducing SLUG expression, to varying extents"
same,oxygen consumption rate (OCR),"NAMEC8, SUM159 and BC2.2",lower OCR when supplemented with palmitate

# From patent US12667546B2, “Methods for manipulating cell state transitions in cancer” (AGENCY FOR SCIENCE, TECHNOLOGY AND RESEARCH, priority 2018, dated 2026)
